From US20240165280A1, “METHODS FOR TREATMENT OF CANCERS” (Fusion Pharmaceuticals Inc., priority 2021, published 2024)
“Also recorded” adds a separate entry of the source.

Experiments:
HT-29 xenografts [1] = assay: Earlier [^177Lu]-3BP-227 therapy study (Study 1), HT-29 xenografts in nude mice; assay type: in vivo
HT-29 xenografts [2] = assay: Earlier [^177Lu]-3BP-227 therapy study (Study 2), HT-29 xenografts; assay type: in vivo, nude mice; details: 4.5 mCi per mouse, tumor volume about 450 mm^3 at injection
[3] = Tolerability (mouse weight, health status) in the therapy study; assay type: in vivo, CD-1 Nude mice
Experimental: (§1) For therapeutic efficacy studies, single doses of 3,885-8,325 MBq/kg of [^177Lu]-3BP-227 (2,100-4,500 μCO or 1.85-5.55 MBq/kg of [^225Ac]-3BP-227 (1-3 μCO were administered to animals bearing HT29 xenografts (average tumor volume=212±46 mm^3), and tumor growth was monitored for 77 days. Mice in the control group were administered vehicle alone (10% ethanol in PBS). Study endpoints included tumor volume measurement and/or impact to animal health status.
A therapy efficacy study of [^177Lu]-3BP-227 and [^225Ac]-3BP-227 was conducted in mice comprising the following: • 1. […] Target dose of radioactivity was 2.1 or 4.5 mCi of [^177Lu]-3BP-227 per mouse, or 1 or 3 μCi of [^225Ac]-3BP-227 per mouse, for radiotherapy groups. • 3. […] For all groups, tumor size and mouse weight were monitored for 34-77 days. Relative tumor volume, relative mouse weight, and tumor regression relative to control were also calculated.
[^177Lu]-3BP-227 will be dissolved in PBS containing 10% ethanol and prepared at a concentration of about 13 mCi/mL and about 25 mCi/mL. […] The length (L) and width (W) of the tumor will be measured three times a week up to day 28, and the tumor volume will be calculated as per Section 13, Data Calculations and Statistical Analysis. […]

[4] = Acute toxicity in mice with [^177Lu]-3BP-227 therapy (earlier studies); assay type: in vivo; details: earlier [^177Lu]-3BP-227 therapy studies in mice
293 tumor xenografts = assay: Uptake into 293 tumor xenografts, which do not express NTSR1; assay type: in vivo; details: 293 tumor xenografts (no NTSR1 expression)
Description: (§2) The compounds to be evaluated are [^177Lu]-3BP-227 and [^225Ac]-3BP-227, which are the ^177Lu and ^225Ac radiolabelled versions, respectively, of the compound of Formula I (also referred as 3BP-227). NTSR1 is overexpressed in several types of cancer, e.g., pancreatic ductal adenocarcinoma (PDAC), Ewing's sarcoma and prostate cancer, but it is rarely expressed in normal tissues.

HT-29 xenograft tumors = assay: Therapy study of [^177Lu]-3BP-227 and [^225Ac]-3BP-227 in CD-1 Nude mice bearing HT-29 xenograft tumors; assay type: in vivo; details: for tumor growth inhibition relative to controls: single i.v. dose 4.5 mCi per mouse (8,325 MBq/kg), HT-29 xenografts, monitored 34 days
Experimental: as §1
A therapy efficacy study of [^177Lu]-3BP-227 and [^225Ac]-3BP-227 was conducted in mice comprising the following: • 1. 30 CD-1 Nude mice (5-6 week-old females; Charles River Laboratories) bearing subcutaneous HT-29 (ATCC #HTB-38; colorectal adenocarcinoma) tumor xenografts distributed amongst 5 groups (n=6). There were two groups each treated with [^177Lu]-3BP-227 or [^225Ac]-3BP-227 and 1 control group (below). • 2. Target dose of radioactivity was 2.1 or 4.5 mCi of [^177Lu]-3BP-227 per mouse, or 1 or 3 μCi of [^225Ac]-3BP-227 per mouse, for radiotherapy groups. • 3. Mice in the control group were administered vehicle alone (10% ethanol in PBS). • 4. For all groups, tumor size and mouse weight were monitored for 34-77 days. Relative tumor volume, relative mouse weight, and tumor regression relative to control were also calculated.
Perform an in vivo therapy study to determine the efficacy of [^177Lu]-3BP-227 and [^225Ac]-3BP-227, for the treatment of subcutaneous HT-29 xenograft tumors in nude mice.
Groups of CD-1 Nude female mice (five groups; n=6 each, 30 total) will be administered radiolabelled test articles via intravenous injection once.
[^177Lu]-3BP-227 will be dissolved in PBS containing 10% ethanol and prepared at a concentration of about 13 mCi/mL and about 25 mCi/mL. [^177Lu]-3BP-227 compounds would be administered (in 200 μL) at a dose of 2.1 mCi (about 13 mCi/mL stock) or 4.5 mCi (about 25 mCi/mL stock) to two groups of animals (n=12 total). [^225Ac]-3BP-227 will be dissolved in PBS containing 10% ethanol and prepared at a concentration of 5 μCi/mL and 15 μCi/mL. [^225Ac]-3BP-227 compounds will be administered (in 200 μL) at a dose of 1 μCi (5 μCi/ml stock) or 3 μCi (15 μCi/mL stock) to two groups of animals (n=12 total). […] The length (L) and width (W) of the tumor will be measured three times a week up to day 28, and the tumor volume will be calculated as per Section 13, Data Calculations and Statistical Analysis. […]
1. Tumor volume is calculated according to the formula: TV=(L×W^2)×0.52, where L is the longest diameter (length) of the tumor and W is the shortest diameter (width) of the tumor. Tumor volume at day n is expressed as relative tumor volume (RTV) according to the following formula: RTV=TVn/TV0, where TVn is the tumor volume at day n, and TV0 is the tumor volume at day 0. […]

[5] = test system: NTSR1-expressing HT-29 xenograft tumors; assay: Uptake and persistence in NTSR1-expressing HT-29 xenograft tumors; assay type: in vivo; details: NTSR1-expressing HT-29 xenograft tumors in Nude mice
Description: as §2

In the case of COc1cccc(OC)c1-c1cc(C(=O)NC2(C(=O)O)C3CC4CC(C3)CC2C4)nn1-c1ccc(C(=O)N(C)CCCN(C)CCCN(C)C(=O)CN2CCN(CC(=O)[O-])CCN(CC(=O)[O-])CCN(CC(=O)[O-])CC2)cc1C(C)C.[177Lu+3] (stereo not shown) [[^177Lu]-3BP-227], the “inhibition of tumor growth” value (HT-29 xenografts [1]; about 2.1 mCi per mouse) is reported as “somewhat inhibited tumor growth”, the “suppression of tumor growth” value (HT-29 xenografts [1]; about 4.5 mCi per mouse, tumor volume about 200 mm^3 at injection) is reported as “effective as a therapy for suppressing tumor growth” and the “duration of tumor growth suppression” value (HT-29 xenografts [1]; particularly evident at about 4.5 mCi per mouse) is reported as “at least 60 days”. The “suppression of HT-29 tumor growth” value (HT-29 xenografts [2]) was “not efficacious at suppressing HT-29 tumor growth”, the “weight gain compared with vehicle control” value ([3]; 2.1 and 4.5 mCi groups, 34 days) was “indistinguishable weight gain” and the treatment-related toxicities ([3]; all dose groups of the studies) was “no treatment-related toxicities observed”. For the same molecule, the acute toxicity [4] was “no observed acute toxicity”, the tumor uptake (293 tumor xenografts) was “minimal uptake” and the “frequency of significant tumor regrowth” value (HT-29 xenograft tumors; 4.5 mCi [^177Lu]-3BP-227 versus 1 μCi [^225Ac]-3BP-227 group) was “significant tumor regrowth was more frequent”. For the same molecule, the “duration of tumor growth inhibition relative to controls” value (HT-29 xenograft tumors; 4.5 mCi group, whole monitoring period) was 34 days, the “tumor growth inhibition relative to controls” value (HT-29 xenograft tumors) was “inhibition in the growth of tumors; also recorded: significant and durable tumor growth inhibition” and the “tumor growth inhibition relative to controls” value (HT-29 xenograft tumors; listed as [^177Lu]3BP-227) was “efficacious at suppressing tumor growth”. For the same molecule, the “tumor uptake and persistence” value [5] was “good uptake and persistence”.
